This note sets out measurements from BindingDB's records for patent US12466821 (Novartis, 2025).

One may read the IC50 as the concentration that inhibits the measured activity by half. Read a high IC50 as lower potency.

The test addresses T1, DNA polymerase catalytic subunit (Human herpesvirus 1 (strain 17), UniProt P04293).
T1 sequence (P04293 whole entry): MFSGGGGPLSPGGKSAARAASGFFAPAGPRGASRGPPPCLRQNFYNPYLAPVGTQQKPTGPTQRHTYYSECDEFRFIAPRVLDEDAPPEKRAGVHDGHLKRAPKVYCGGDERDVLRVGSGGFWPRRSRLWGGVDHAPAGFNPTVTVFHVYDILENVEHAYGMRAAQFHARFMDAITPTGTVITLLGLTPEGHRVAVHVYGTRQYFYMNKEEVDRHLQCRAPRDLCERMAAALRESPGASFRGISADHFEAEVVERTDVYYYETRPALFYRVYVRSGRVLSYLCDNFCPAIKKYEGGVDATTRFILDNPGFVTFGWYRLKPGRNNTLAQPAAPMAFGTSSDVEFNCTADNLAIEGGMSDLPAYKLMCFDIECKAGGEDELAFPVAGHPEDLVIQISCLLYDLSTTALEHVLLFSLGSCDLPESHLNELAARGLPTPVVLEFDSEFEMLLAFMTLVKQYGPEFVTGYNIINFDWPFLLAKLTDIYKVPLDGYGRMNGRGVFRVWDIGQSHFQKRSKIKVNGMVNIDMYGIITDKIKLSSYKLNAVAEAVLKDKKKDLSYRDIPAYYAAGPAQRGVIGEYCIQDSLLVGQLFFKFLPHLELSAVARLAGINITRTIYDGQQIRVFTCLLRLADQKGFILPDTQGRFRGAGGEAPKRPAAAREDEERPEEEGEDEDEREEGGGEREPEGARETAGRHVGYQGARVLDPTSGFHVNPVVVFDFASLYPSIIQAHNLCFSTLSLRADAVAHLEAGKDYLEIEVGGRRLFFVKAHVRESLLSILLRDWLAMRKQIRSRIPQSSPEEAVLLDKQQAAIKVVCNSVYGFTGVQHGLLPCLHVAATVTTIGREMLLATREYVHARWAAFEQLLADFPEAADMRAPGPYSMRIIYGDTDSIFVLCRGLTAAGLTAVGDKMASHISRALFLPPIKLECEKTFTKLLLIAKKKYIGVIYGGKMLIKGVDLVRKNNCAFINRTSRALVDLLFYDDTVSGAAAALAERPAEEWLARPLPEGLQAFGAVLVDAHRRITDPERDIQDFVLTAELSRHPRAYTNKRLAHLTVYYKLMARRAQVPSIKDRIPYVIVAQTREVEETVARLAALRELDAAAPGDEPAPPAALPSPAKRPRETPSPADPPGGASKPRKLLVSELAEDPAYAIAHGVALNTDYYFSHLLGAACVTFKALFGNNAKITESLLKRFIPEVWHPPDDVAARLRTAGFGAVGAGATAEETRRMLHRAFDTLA
For `CCc1cc(C(=O)NCc2ccc(Cl)cc2)c(=O)n2c1C(=O)N(CCN1CCCS1(=O)=O)CC2` [US12466821, Example 135], the IC50 came out at 0.342 µM.

Molecule `CS(=O)(=O)C1(CCN2CCn3c(ccc(C(=O)NCc4ccc(Cl)cc4)c3=O)C2=O)CC1` [US12466821, Example 170] yielded an IC50 of 9.35 µM. In turn, `Cc1cc(C(=O)NCc2ccc(Cl)cc2)c(=O)n2c1C(=O)N(CC1(CS(C)(=O)=O)CC1)CC2` [US12466821, Example 154] returned an IC50 of 0.283 µM. Take `CS(=O)(=O)CC1(CN2CCn3c(c(F)cc(C(=O)NCc4ccc(Cl)cc4)c3=O)C2=O)CC1` [US12466821, Example 168]: half-maximal inhibition (IC50) was put at 0.292 µM.

For `O=C(NCc1ccc(Cl)cc1)c1ccc2n(c1=O)CCN(CC1(C(=O)N3CCOCC3)CC1)C2=O` [US12466821, Example 211], the IC50 turned out to be 4.77 µM. As for `NC1(CN2CCn3c(ccc(C(=O)NCc4ccc(Cl)cc4)c3=O)C2=O)CC1` [US12466821, Example 197], the midpoint of inhibition, the IC50, lay at 3.6 µM. On to `O=C(NCc1ccc(Cl)cc1)c1cc(CC2CC2)c2n(c1=O)CCN(CCN1CCCS1(=O)=O)C2=O` [US12466821, Example 133], for which the IC50 stood at 0.324 µM. Take `O=C(NCc1ccc(Cl)cc1)c1cc(C(F)F)c2n(c1=O)CCN(CCN1CCCS1(=O)=O)C2=O` [US12466821, Example 144]: the IC50 was 1.11 µM. `CCOC(=O)C1(CN2CCn3c(ccc(C(=O)NCc4ccc(Cl)cc4)c3=O)C2=O)CC1` [US12466821, Example 207] returned an IC50 of 2.9 µM. In turn, `CN(C)C(=O)C1(CN2CCn3c(ccc(C(=O)NCc4ccc(Cl)cc4)c3=O)C2=O)CC1` [US12466821, Example 209] displayed an IC50 of 1.64 µM.

Regarding `N#Cc1ccc(CNC(=O)c2ccc3n(c2=O)CCN(CC2(S(=O)(=O)CCCO)CC2)C3=O)cc1F` [US12466821, Example 23], inhibition was half-maximal at 0.124 µM (IC50). Molecule `CS(=O)(=O)C1(CN2CCn3c(c(F)cc(C(=O)NCc4ccc(Cl)cc4)c3=O)C2=O)CC1` [US12466821, Example 167] had an IC50 of 0.0718 µM. In turn, `CS(=O)(=O)C1(CCN2CCn3c(c(F)cc(C(=O)NCc4ccc(Cl)cc4)c3=O)C2=O)CC1` [US12466821, Example 165] returned an IC50 of 137 µM.

Consider `N#CCS(=O)(=O)C1(CN2CCn3c(ccc(C(=O)NCc4ccc(Cl)cc4)c3=O)C2=O)CC1` [US12466821, Example 108-1], for which the IC50 was 0.116 µM.

In turn, `CS(=O)(=O)CCCN1CCn2c(c(C3CC3)cc(C(=O)NCc3ccc(Cl)cc3)c2=O)C1=O` [US12466821, Example 130] returned an IC50 of 2.42 µM.

For `O=C(NCc1ccc(Cl)cc1)c1cc(C2CC2)c2n(c1=O)CCN(CCN1CCCS1(=O)=O)C2=O` [US12466821, Example 131], half-maximal inhibition (IC50) required 0.311 µM. `CN(C)S(=O)(=O)C1(CN2CCn3c(ccc(C(=O)NCc4ccc(C#N)cc4)c3=O)C2=O)CC1` [US12466821, Example 90-2] returned an IC50 of 0.0198 µM. Regarding `O=C(NCc1ccc(Cl)cc1)c1ccc2n(c1=O)CCN(CC1(C(=O)N3CCC3)CC1)C2=O` [US12466821, Example 208], half-maximal inhibition (IC50) required 4.53 µM. On to `CS(=O)(=O)CCCN1CCn2c(c(C(F)(F)F)cc(C(=O)NCc3ccc(Cl)cc3)c2=O)C1=O` [US12466821, Example 146], for which half-maximal inhibition (IC50) required 14.8 µM. `CS(=O)(=O)CCN1CCn2c(ccc(C(=O)NCc3ccc(Cl)cc3)c2=O)C1=O` [US12466821, Example 51] returned an IC50 of 0.789 µM. With `Cc1cc(C(=O)NCc2ccc(Cl)cc2)c(=O)n2c1C(=O)N(CCC1(S(C)(=O)=O)CC1)CC2` [US12466821, Example 151], 9.25 µM corresponded to half-maximal inhibition (IC50). Molecule `CN(CCN1CCn2c(c(F)cc(C(=O)NCc3ccc(Cl)cc3)c2=O)C1=O)S(C)(=O)=O` [US12466821, Example 160] had an IC50 of 2.02 µM.

As to `Cc1cc(C(=O)NCc2ccc(Cl)cc2)c(=O)n2c1C(=O)N(CC1(N3CCCS3(=O)=O)CC1)CC2` [US12466821, Example 150], the IC50 was 0.0653 µM.
